According to patent publication US20040122096A1, “Use of inhibitors of the cellular Na+/H+ exchanger (NHE) for preparing a medicament for normalizing serum lipids” (Hoechst Aktiengesellschaft, priority 1996, published 2004):

System: male New Zealand white rabbits
Assay: Serum total cholesterol and lipoprotein fractions in rabbits after 30 days feeding
Assay type: in vivo, rabbit
Settings: mean ± SEM
Text: This antihyperlipidemic action is shown for an NHE inhibitor, 4-isopropyl-3-methylsulfonylbenzoylguanidine methanesulfonate (Hoe 642), in the following table, male New Zealand white rabbits (n=28) having a weight of 3-4 kg being used and divided into four groups of 7 animals in each case randomized as described below: 1) standard rabbit feed (®Altromin 2834), 2) atherogenic diet having a content of 0.25% cholesterol and 3% coconut oil, 3) standard rabbit feed+Hoe 642 (0.1%), 4) atherogenic diet+Hoe 642 (0.1%). Blood samples were taken once after 30 days feeding by puncture of the auricular artery. Serum was obtained from the blood. The total cholesterol was measured from the serum by means of the CHOD (cholesterol oxidase)-PAP method (Merckotest, Merck Diagnostics, E. Merck, 64271 Darmstadt, Germany). The separation of the lipoproteins was carried out, likewise from the serum, by FPLC (fast protein liquid chromatography) method (März et al. 1993, Clin. Chem. 39/11:2276-2281).

[1] = atherogenic diet (0.25% cholesterol, 3% coconut oil) + Hoe 642 0.1%
[2] = normal diet (standard rabbit feed) + Hoe 642 0.1%

`CC(C)c1ccc(C(=O)NC(=N)N)cc1S(C)(=O)=O` [HOE 642, 4-isopropyl-3-methylsulfonylbenzoylguanidine methanesulfonate] was tested, and the “LDL (serum cholesterol fraction)” value [1] was 2.1 ± 0.2 mmol/L, the “Total cholesterol (serum)” value [1] was 7.95 ± 0.89 mmol/L and the “VLDL (serum cholesterol fraction)” value [1] was 4.6 ± 0.6 mmol/L. For the same compound, the “LDL (serum cholesterol fraction)” value [2] was 0.23 ± 0.04 mmol/L, the “Total cholesterol (serum)” value [2] was 0.69 ± 0.1 mmol/L and the “VLDL (serum cholesterol fraction)” value [2] was 0.05 ± 0.02 mmol/L.
